Assay results published in patent publication US20100267561A1, “HERBICIDAL PYRIDAZINONE DERIVATIVES” (priority 2007, published 2010).

Assays:
Assay type in all cases: in vivo
[1] = test system: windgrass (Apera spica-venti); assay: Test C pre-/postemergence plant response; settings: Preemergence
Summary of the method: (§1)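 Pre/post spray; solvent blend non-phytotoxic, with surfactant; post stage 1–4 leaves (2–18 cm); controlled environment 15–25 d; visual score 0–100 relative to controls, 100 = complete control.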

[2] = test system: pigweed (Amaranthus retroflexus); assay: Test C pre-/postemergence plant response; settings: Preemergence
Summary of the method: as §1

[3] = test system: winter barley (Hordeum vulgare); assay: Test C pre-/postemergence plant response; settings: Preemergence
Summary of the method: as §1

canola (Brassica rapa) = assay: Test C pre-/postemergence plant response; settings: Preemergence
Summary of the method: as §1

[4] = test system: spring wheat (Triticum aestivum); assay: Test C pre-/postemergence plant response; settings: Preemergence
Summary of the method: as §1

[5] = test system: wild mustard (Sinapis arvensis); assay: Test C pre-/postemergence plant response; settings: Preemergence
Summary of the method: as §1

[6] = test system: blackgrass (Alopecurus myosuroides); assay: Test C pre-/postemergence plant response; settings: Preemergence
Summary of the method: as §1

[7] = test system: green foxtail (Setaria viridis); assay: Test C pre-/postemergence plant response; settings: Preemergence
Summary of the method: as §1

[8] = test system: downy bromegrass (Bromus tectorum); assay: Test C pre-/postemergence plant response; settings: Preemergence
Summary of the method: as §1

[9] = test system: annual bluegrass (Poa annua); assay: Test C pre-/postemergence plant response; settings: Preemergence, scale 0 to 100 (0 no effect, 100 complete control)
Summary of the method: as §1

[10] = test system: winter wheat (Triticum aestivum); assay: Test C pre-/postemergence plant response; settings: Preemergence
Summary of the method: as §1

[11] = test system: canarygrass (Phalaris minor); assay: Test C pre-/postemergence plant response; settings: Preemergence
Summary of the method: as §1

[12] = test system: spring barley (Hordeum vulgare); assay: Test C pre-/postemergence plant response; settings: Preemergence
Summary of the method: as §1

[13] = test system: Italian ryegrass (Lolium multiflorum); assay: Test C pre-/postemergence plant response; settings: Preemergence
Summary of the method: as §1

wild oat (Avena fatua) = assay: Test C pre-/postemergence plant response; settings: Preemergence
Summary of the method: as §1

corn (Zea mays) = assay: Test A pre-/postemergence plant response
Summary of the method: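 Ratings run 0–100 (100 = complete control), assigned visually against untreated controls roughly 10 days after treatment in a greenhouse. Compounds, formulated in non-phytotoxic solvent containing surfactant, were applied as a soil-directed preemergence spray and concurrently postemergence to one- to two-leaf plants 2–10 cm tall.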

[14] = 8 g ai/ha, scale 0 to 100 (0 no effect, 100 complete control)
[15] = 16 g ai/ha, scale 0 to 100 (0 no effect, 100 complete control)
[16] = 31 g ai/ha, scale 0 to 100 (0 no effect, 100 complete control)
[17] = 62 g ai/ha, scale 0 to 100, 0 no effect, 100 complete control

CCc1cc(-c2ccc(Cl)cc2)nn1-c1c(O)cnn(C)c1=O [Compound 21]
Plant response rating, Windgrass [1, 14]: 100
Plant response rating, Windgrass [1, 15]: 100
Plant response rating, Windgrass [1, 16]: 100
Plant response rating, Windgrass [1, 17]: 100
Plant response rating, Pigweed [2, 14]: 0
Plant response rating, Pigweed [2, 15]: 0
Plant response rating, Pigweed [2, 16]: 0
Plant response rating, Pigweed [2, 17]: 0
Plant response rating, Barley, Winter [3, 14]: 20
Plant response rating, Barley, Winter [3, 15]: 40
Plant response rating, Barley, Winter [3, 16]: 50
Plant response rating, Barley, Winter [3, 17]: 75
Plant response rating, Canola (canola (Brassica rapa); [14]): 0
Plant response rating, Canola (canola (Brassica rapa); [15]): 0
Plant response rating, Canola (canola (Brassica rapa); [16]): 0
Plant response rating, Canola (canola (Brassica rapa); [17]): 0
Plant response rating, Wheat, Spring [4, 14]: 30
Plant response rating, Wheat, Spring [4, 15]: 40
Plant response rating, Wheat, Spring [4, 16]: 60
Plant response rating, Wheat, Spring [4, 17]: 90
Plant response rating, Mustard, Wild [5, 14]: 0
Plant response rating, Mustard, Wild [5, 15]: 0
Plant response rating, Mustard, Wild [5, 16]: 0
Plant response rating, Mustard, Wild [5, 17]: 0
Plant response rating, Blackgrass [6, 14]: 95
Plant response rating, Blackgrass [6, 15]: 98
Plant response rating, Blackgrass [6, 16]: 100
Plant response rating, Blackgrass [6, 17]: 100
Plant response rating, Foxtail, Green [7, 14]: 50
Plant response rating, Foxtail, Green [7, 15]: 100
Plant response rating, Foxtail, Green [7, 16]: 100
Plant response rating, Foxtail, Green [7, 17]: 100
Plant response rating, Bromegrass, Downy [8, 14]: 0
Plant response rating, Bromegrass, Downy [8, 15]: 40
Plant response rating, Bromegrass, Downy [8, 16]: 75
Plant response rating, Bromegrass, Downy [8, 17]: 95
Plant response rating, Bluegrass ([9]; 8 g ai/ha): 0
Plant response rating, Bluegrass ([9]; 16 g ai/ha): 0
Plant response rating, Wheat, Winter [10, 14]: 0
Plant response rating, Wheat, Winter [10, 15]: 50
Plant response rating, Wheat, Winter [10, 16]: 60
Plant response rating, Wheat, Winter [10, 17]: 95
Plant response rating, Canarygrass [11, 14]: 65
Plant response rating, Canarygrass [11, 15]: 75
Plant response rating, Canarygrass [11, 16]: 90
Plant response rating, Canarygrass [11, 17]: 100
Plant response rating, Barley, Spring [12, 14]: 20
Plant response rating, Barley, Spring [12, 15]: 35
Plant response rating, Barley, Spring [12, 16]: 60
Plant response rating, Barley, Spring [12, 17]: 75
Plant response rating, Ryegrass, Italian [13, 14]: 98
Plant response rating, Ryegrass, Italian [13, 15]: 100
Plant response rating, Ryegrass, Italian [13, 16]: 100
Plant response rating, Ryegrass, Italian [13, 17]: 100
Plant response rating, Oat, Wild (wild oat (Avena fatua); [14]): 65
Plant response rating, Oat, Wild (wild oat (Avena fatua); [15]): 75
Plant response rating, Oat, Wild (wild oat (Avena fatua); [16]): 95
Plant response rating, Oat, Wild (wild oat (Avena fatua); [17]): 100
Plant response rating, Corn (corn (Zea mays); Postemergence, 125 g ai/ha, 0 to 100 scale, 0 no effect, 100 complete control): 80
Plant response rating, Corn (corn (Zea mays); Postemergence, 500 g ai/ha, 0 to 100 scale, 0 no effect, 100 complete control): 90
Plant response rating, Corn (corn (Zea mays); Preemergence, 125 g ai/ha, 0 to 100 scale (0 no effect, 100 complete control)): 90
Plant response rating, Corn (corn (Zea mays); Preemergence, 500 g ai/ha, 0 to 100 scale (0 no effect, 100 complete control)): 100
